From patent publication US12404242B2, “Compositions and methods for making and using small molecules in the treatment of cancer” (Reglagene, Inc., priority 2021, dated 2025)

Columns and labels:
Format in all cases: cell-based, human
[1] = test system: 22RV1 cells; experiment: Cell viability (AlamarBlue), 22RV1 prostate cancer cells; design: key to EC50 (μM) in 22RV1 cells: Inactive: less than 50% inhibition at the highest concentration tested at 50 μM; settings: 72 hours of treatment; for EC50: Homo sapiens, 22Rv1, 72 h
Experimental: (§1) In another exemplary method, half maximal effective concentration (EC50) was determined for some compounds and their isomers as disclosed herein in a variety of human cancer cell lines. In brief, cells from two prostate cancer cell lines (LNCaP, 22RV1), one glioblastoma cell line (U87), one breast cancer cell line (MCF7), a glioma cell line (LN18), a normal prostate cell line (RWPE1), and a glioblastoma cell line (T98G) were plated in a multi-well plate. After 24 hours, one of the compounds herein was added to the well at increasing concentrations. After 72 hours of treatment, cell viability was assessed using AlamrBlue® (Invitrogen) and fluorescence was read using the CLARIOstar Plus Multilabel Plate Reader (BMG Labtech). Samples were normalized to no treatment controls. EC50 values were determined using GraphPad Prism.

[2] = test system: LNCaP cells; experiment: Cell viability (AlamarBlue), LNCaP prostate cancer cells; design: key to EC50 (μM) in LNCaP cells: Inactive: less than 50% inhibition at the highest concentration tested at 50 μM; settings: 72 hours of treatment; for EC50: Homo sapiens, LNCaP, 72 h
Experimental: as §1

[3] = test system: U87 cells; experiment: Cell viability (AlamarBlue), U87 glioblastoma cells; design: key to EC50 (μM) in U87 cells: Inactive: less than 50% inhibition at the highest concentration tested at 50 μM; settings: 72 hours of treatment; for EC50: Homo sapiens, U-87 MG, 72 h
Experimental: as §1

Row | Structure (SMILES) | EC50 (μM) in 22RV1 cells [1] | EC50 (μM) in LNCaP cells [2] | EC50 (μM) in U87 cells [3] | EC50 [1] [µM] | EC50 [3] [µM] | EC50 [2] [µM]
1 | Cc1cc(NC(=O)NC(=O)C2CC(OCC3CC3)C2)ccc1Oc1ccc(Cl)cn1 (stereo not drawn) [Compound 40, N-((4-((5-chloropyridin-2-yl)oxy)-3-methylphenyl)carbamoyl)-3-(cyclopropylmethoxy)cyclobutane-1-carboxamide] | Inactive | Inactive | Inactive |  |  | 
2 | Cc1cc(NC(=O)NC(=O)C2CC(OCC3CC3)C2)ccc1Oc1ncc(Cl)cn1 (stereo not drawn) [Compound 41, N-((4-((5-chloropyrimidin-2-yl)oxy)-3-methylphenyl)carbamoyl)-3-(cyclopropylmethoxy)cyclobutane-1-carboxamide] |  | Inactive |  | 46 | 49 | 
3 | COC1CCC(C(=O)NC(=O)Nc2ccc(Oc3cncnc3)c(C)c2)CC1 (stereo not drawn) [Compound 42, 4-methoxy-N-((3-methyl-4-(pyrimidin-5-yloxy)phenyl)carbamoyl)cyclohexane-1-carboxamide] |  |  |  | 37 | 41.5 | 19.8
4 | COC1CC(C(=O)NC(=O)Nc2ccc(Oc3cncnc3)c(C)c2)C1 (stereo not drawn) [Compound 43, 3-methoxy-N-((3-methyl-4-(pyrimidin-5-yloxy)phenyl)carbamoyl)cyclobutane-1-carboxamide] |  |  |  | 39 | 34 | 21.8
5 | COCCOC1CCC(C(=O)NC(=O)Nc2ccc(Oc3ncc(Cl)cn3)c(C)c2)CC1 (stereo not drawn) [Compound 50, N-((4-((5-chloropyrimidin-2-yl)oxy)-3-methylphenyl)carbamoyl)-4-(2-methoxyethoxy)cyclohexanecarboxamide] | Inactive | Inactive | Inactive |  |  | 
6 | COC1CCC(C(=O)NC(=O)Nc2ccc(Oc3cnc(N4CC5(COC5)C4)nc3)c(C)c2)CC1 (stereo not drawn) [Compound 51, N-((4-((2-(2-oxa-6-azaspiro[3.3]heptan-6-yl)pyrimidin-5-yl)oxy)-3-methylphenyl)carbamoyl)-4-methoxycyclohexanecarboxamide] |  |  |  | 20 | 29 | 11.1
7 | COC1CC(C(=O)NC(=O)Nc2ccc(Oc3cnc(N4CC5(COC5)C4)nc3)c(C)c2)C1 (stereo not drawn) [Compound 52, -((4-((2-(2-oxa-6-azaspiro[3.3]heptan-6-yl)pyrimidin-5-yl)oxy)-3-methylphenyl)carbamoyl)-3-methoxycyclobutanecarboxamide] |  |  | Inactive | 36 |  | 25.3
8 | Cc1cc(NC(=O)NC(=O)C2CCC(O)CC2)ccc1Oc1ncc(Cl)cn1 (stereo not drawn) [Compound 53, N-((4-((5-chloropyrimidin-2-yl)oxy)-3-methylphenyl)carbamoyl)-4-hydroxycyclohexane-1-carboxamide] | Inactive | Inactive | Inactive |  |  | 
9 | COCCOC1CCC(C(=O)NC(=O)Nc2ccc(Oc3ncc(Cl)cn3)c(F)c2)CC1 (stereo not drawn) [Compound 54, N-((4-((5-chloropyrimidin-2-yl)oxy)-3-fluorophenyl)carbamoyl)-4-(2-methoxyethoxy)cyclohexane-1-carboxamide] | Inactive | Inactive | Inactive |  |  | 
10 | COC1CC(C(=O)NC(=O)Nc2ccc(Oc3nncs3)c(C)c2)C1 (stereo not drawn) [Compound 55, N-((4-((1,3,4-thiadiazol-2-yl)oxy)-3-methylphenyl)carbamoyl)-3-methoxycyclobutanecarboxamide] |  | Inactive | Inactive | 30.6 |  | 
11 | COC1CC(C(=O)NC(=O)Nc2ccc(Oc3ncc(C(F)(F)F)s3)c(C)c2)C1 (stereo not drawn) [Compound 61, 3-methoxy-N-((3-methyl-4-((5-(trifluoromethyl)thiazol-2-yl)oxy)phenyl)carbamoyl)cyclobutane-1-carboxamide] |  |  |  | 1.6 | 0.35 | 0.93
